Test results as given in the supplement of paper PMC10307832.

Tests used:
Assay in all cases: relative viability (nuclei count vs DMSO), 5 days (fraction); higher = more cells survive
[1] = compound: CCC1=CN=CN=C1N2CCN(CC2)CC3=NC4=C(N3)C=C(C=C4)C(F)(F)F + CC(=O)Nc1cccc(-n2c(=O)n(C3CC3)c(=O)c3c(Nc4ccc(I)cc4F)n(C)c(=O)c(C)c32)c1 [Trametinib] (partner 0.02 µM)
In short: (§1)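 Each reported value is a median over duplicate plates. It expresses relative viability: treated-well nuclei count divided by vehicle-well nuclei count. Lung cancer cell lines in 1536-well plates were dosed by pin tool a day after seeding, alone with one drug or with a fixed anchor-drug dose plus five library-drug doses (not always all listed) in √10 steps, and nuclei were counted after 5 days.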

Mirin + Decitabine = compound: N=C1NC(=O)/C(=C/c2ccc(O)cc2)S1 [Mirin] + Nc1ncn([C@H]2C[C@H](O)[C@@H](CO)O2)c(=O)n1 [Decitabine] (partner 2 µM)
In short: as §1

[2] = compound: CCC1=CN=CN=C1N2CCN(CC2)CC3=NC4=C(N3)C=C(C=C4)C(F)(F)F + Nc1nc2[nH]cc(CCc3ccc(C(=O)N[C@@H](CCC(=O)O)C(=O)O)cc3)c2c(=O)[nH]1 [Pemetrexed] (partner 0.2 µM)
In short: as §1

Mirin + Alpelisib = compound: N=C1NC(=O)/C(=C/c2ccc(O)cc2)S1 [Mirin] + Cc1nc(NC(=O)N2CCC[C@H]2C(N)=O)sc1-c1ccnc(C(C)(C)C(F)(F)F)c1 [Alpelisib] (partner 2 µM)
In short: as §1

Cell Line	relative viability ([1]; first compound 0.04 µM)	relative viability ([1]; first compound 0.1265 µM)	relative viability ([1]; first compound 0.4 µM)	relative viability ([1]; first compound 1.265 µM)	relative viability ([1]; first compound 4 µM)	relative viability (Mirin + Decitabine; first compound 0.25 µM)	relative viability (Mirin + Decitabine; first compound 0.7906 µM)	relative viability (Mirin + Decitabine; first compound 2.5 µM)	relative viability (Mirin + Decitabine; first compound 7.906 µM)	relative viability (Mirin + Decitabine; first compound 25 µM)	relative viability ([2]; first compound 0.04 µM)	relative viability ([2]; first compound 0.1265 µM)	relative viability ([2]; first compound 0.4 µM)	relative viability ([2]; first compound 1.265 µM)	relative viability ([2]; first compound 4 µM)	relative viability (Mirin + Alpelisib; first compound 0.25 µM)	relative viability (Mirin + Alpelisib; first compound 0.7906 µM)	relative viability (Mirin + Alpelisib; first compound 2.5 µM)	relative viability (Mirin + Alpelisib; first compound 7.906 µM)	relative viability (Mirin + Alpelisib; first compound 25 µM)
LCLC-103H	0.724	0.731	0.673	0.683	0.639	0.692	0.759	0.736	0.797	0.871	0.399	0.449	0.462	0.446	0.467	0.917	1.02	0.908	1.05	1.1
NCI-H520	0.784	0.583	0.582	0.582	0.593	0.531	0.563	0.494	0.374	0.479	0.667	0.719	0.762	0.576	0.602	1.01	0.834	0.883	0.665	0.522
NCI-H1755	0.828	0.769	0.759	0.68	0.799	0.725	0.775	0.703	0.717	0.752	0.425	0.453	0.754	0.411	0.454	0.926	0.947	0.976	0.947	0.876
